From paper PMC7374170, “TRIB3-EGFR interaction promotes lung cancer progression and defines a therapeutic target” (Nature Communications, 2020) come the findings set out here.

SMILES strings stand for the structures. Read-outs that look alike come from different tables or passages of the source. Bridge positions count the residues as written; N and C are the ends. Square brackets hold non-standard residues; d marks the D form. Peptide text beside a SMILES is read from it. S5 = C=CCCC[C@](C)(N)C(=O)O

Series [1] is described as follows: In vitro plasma stability assay. The note with it: normalised to 100 at 0 min.
Method: The in vitro stability of the peptide was studied in rat plasma. The rat blood was collected by
retroorbital puncture and plasma was harvested after centrifugation (2,500×g, 5 min, 4℃) and
stored at -70℃. The reactions were initiated by adding the test peptide to 100 µl of preheated
plasma solution to yield a final concentration of 4 mM. The plasma solutions were incubated
for indicated times and added 200 µl acetonitrile to deproteinize the plasma. The samples were
subjected to vortex mixing for 1 min and centrifugation for 15 min (14,000 rpm, 4℃). Peptide
concentration in supernatants was determined by reversed-phase HPLC with electrospray
For series [2], the system named is keratinocytes (HaCaT).
Method: (§1) anti-HA Ab and blotted with indicated Abs. c, Cell viability of indicated cells treated with
(§2) Data are means ± SEM of 3 independent assays. d,
(§3) CCK-8 was conducted to detect the cell viability in cell proliferation and cytotoxicity assays
(§4) according to the manufacturer’s instructions (Dojindo Inc., Kumamoto, Japan). Cells were
(§5) plated in 96-well plates, starting at 3,000 cells/well. For cytotoxicity assay, the cells were
(§6) treated with indicated drugs, then a mixture of 10 µl CCK-8 solution and 90 µl complete culture
(§7) medium was added into each well. After 1 hr of incubation, the absorbance was measured at
On the set-up of series [3]: species or system BALB/c nude mice. The settings on record: mouse, in vivo. How it is done:
twice a week for 4 weeks. […] Data are means ± SEM of 3 independent assays. […] CALM: Calmodulin. […] Lung cancer cells were isolated from PDX mice by using the […] One week after tumor inoculation, mice were […] or pemetrexed (100 mg kg-1, once a day). Tumor growth was monitored twice weekly with a caliper. Tumor volume (T ) was calculated using the formula: T =0.5×L×W 2. Mice survival V V […] signs of distress. […] Generation of Stable Cell Lines To establish cell populations stably expressing TRIB3-shRNA1/2, or the Control-shRNA, cells were transfected with TRIB3-shRNA1/2 or the Control-shRNA expressing plasmids. Stable transfectants were selected in medium containing hygromycin. […] (Supplementary Fig. 9a).

For series [4], the system named is colonic mucosal epithelial cells (NCM460).
Method: as §1, §2, §3, §4, §5, §6, §7
A short description of series [5]: In vivo bio-distribution and clearance of FAM-labeled peptide (IVIS). The note with it: FAM-labeled peptides, bolus tail vein injection 2 mg kg-1, male athymic BALB/c nude mice. The procedure:
detected by Exactive™ Plus Orbitrap (Thermo Fisher Scientific, USA).
In vitro plasma stability assay
The rat blood was collected by
The plasma solutions were incubated […]
ionization mass spectrometric detection. The values represent the mean of 3 independent assays.
In vivo bio-distribution and clearance of peptide
OH, USA). Data was analyzed by the built-in software.

Series [6] relates to bronchial epithelial cells (BEAS-2B).
Method: as §1, §2, §3, §4, §5, §6, §7
Series [7] concerns cell surface EGFR in NCI-H157 cells. The series can be described thus: Cell surface EGFR by flow cytometry, NCI-H157. Format: cell-based, human. The note with it: TRIB3-overexpressing NCI-H157 cells, 10 µM monensin 4 hr, EGF 100 ng ml-1 1 hr. How it is done:
Supplementary Figure 2 Overexpression of TRIB3 promotes EGFR recycling. […]
a, NCI-H157 cells and NCI-H157 cells stably expressed TRIB3 were non-stimulated or EGF […]
(100 ng ml-1) stimulated for indicated times. Co-localization of EGFR with EEA1 was analyzed […]
with confocal microscopy, quantification of EGFR and EEA1 colocalization was shown as […]
Pearson’s coefﬁcient. Data are means ± SEM of 3 independent assays. b, Gating strategy to […]
determine surface EGFR level presented in figure 2d and supplementary figure 2c. c, […]
Quantitative analyses of cell surface EGFR in NCI-H157 cells stably expressed Empty-Vector […]
or TRIB3-HA expression plasmid. Cells were pre-incubated with DM SO or 10 µM monensin […]
cell surface was detected by flow cytometry analysis. […]
detected in NCI-H157 cells with or without TRIB3-HA stably ectopic expression (d); or in NCI- […]
localization of EGFR with Rab11 and LAMP1. Quantification of EGFR/Rab11 or […]
3 independent assays. Statistical significance between two groups was determined with two- […]
tailed Student’s t-test. Statistical significance among groups was determined by one-way ANOVA test. […]
Live cells were stained with Alexa-Fluro 488 anti-EGFR antibody (Santa Cruz, R-1, #sc-101 AF488, 1:100). Analysis was performed using a PARTEC EPICSXL (Germany) and data was analyzed using FCS Express 6. […]
A general note: In flow cytometry, cells or beads pass a laser one at a time.

Series [8] deals with A549 cells. The series can be described thus: CCK-8 cell viability / cytotoxicity, A549. The series is classed as cell-based. The note with it: Homo sapiens, read-out: IC50 of pemetrexed, A549, before sensitization.
Method: as §3, §4, §5, §6, §7
In series [9] the test system is NCI-H1975 cells. As to the kind of experiment: CCK-8 cell viability / cytotoxicity, NCI-H1975. The settings on record: Homo sapiens. The series is classed as cell-based.
Method: as §3, §4, §5, §6, §7

Take `CC[C@H](C)[C@@H]1NC(=O)[C@@](C)(NC(=O)[C@H](CC(C)C)NC(=O)[C@H](CC(C)C)NC(=O)[C@H](C)NC(=O)[C@H](CCC(N)=O)NC(=O)[C@@H](N)CC(N)=O)CCCC=CCCC[C@@](C)(C(=O)N[C@H](C(=O)N[C@@H](CCC(=O)O)C(=O)N[C@@H](Cc2ccccc2)C(=O)N[C@@H](CCCCN)C(=O)N[C@@H](CCCCN)C(=O)O)[C@@H](C)O)NC(=O)[C@H](CCCNC(=N)N)NC(=O)[C@H](CC(C)C)NC1=O` [SAH-JGZ4] (H-NQALL[S5]ILR[S5]TEFKK-OH; staple 6-10): the peptide remaining in series [1] (450 min, replicate 1) is recorded as 113.749; in [1] (450 min, replicate 2), 125.15; in series [1] (450 min, replicate 3), 119.761; in series [1] (540 min, replicate 1), 115.041; in series [1] (540 min, replicate 2), 121.067; in [1] (540 min, replicate 3), 118.562. Further, the peptide remaining turned out to be 106.23 in series [1] (630 min, replicate 1); 116.53 in series [1] (630 min, replicate 2); 116.365 in series [1] (630 min, replicate 3); 109.883 in [1] (720 min, replicate 1); 113.113 in series [1] (720 min, replicate 2); 112.463 in series [1] (720 min, replicate 3). Moreover, the “cell viability, HaCaT” value in series [2] is “had no effect on the cell viability”. The “EGFR and HER2 expression in the heart” value in series [3] was “did not cause reductions in”. In addition, the “cell viability, NCM460” value in [4] was “had no effect on the cell viability”. The “half-clearance rate in vivo compared with Pep2-JGZ” value in series [5] is reported as “slower half-clearance rate”. For the same compound, the “cell viability, BEAS-2B” value in series [6] is listed as “had no effect on the cell viability”.

In the case of `CC[C@@]1([C@@H]2O[C@@H]([C@H]3O[C@@](O)(CO)[C@H](C)C[C@@H]3C)C[C@@H]2C)CC[C@H]([C@]2(C)CC[C@]3(C[C@H](O)[C@@H](C)[C@@H]([C@@H](C)[C@@H](OC)[C@H](C)C(=O)O)O3)O2)O1` [monensin], in [7], the EGFR membrane level result is given as “reduced the EGFR membrane level”.

The term IC50 denotes the concentration needed to halve the response being measured. For `Nc1nc2[nH]cc(CCc3ccc(C(=O)N[C@@H](CCC(=O)O)C(=O)O)cc3)c2c(=O)[nH]1` [pemetrexed], the concentration for half-maximal inhibition (IC50) in [8] worked out at 245 nM; in series [9] (NCI-H1975, read-out: IC50 of pemetrexed, H1975, sensitized by SAH-JGZ4) it was 793 nM; in series [9] (NCI-H1975, read-out: IC50 of pemetrexed, H1975, before sensitization) it was 3170 nM.
